pIC50: −log10 of the molar value. In brackets after ≈: the same amount, converted by molar mass.
Assays:
[1] = Solubility test (equilibrium solubility in deionized water, HPLC); type: physicochemical; conditions: thermodynamic from solid, 37° C.
Protocol: Series solutions of 1 nM/10 nM/100 nM/100 nM/1 uM/10 uM/100 uM/1 mM were prepared according to following steps: WG compounds to be tested in the present application and corresponding compounds of structure A were respectively weighed, dissolved in deionized water, and oscillated at 37° C. for 12 hours to reach dissolution equilibrium. The resulted solutions were filtered 3 times with a filter membrane, and filtrates were collected. Actual concentrations of the compounds in the solutions were determined with HPLC. A curve of actual concentration of the solution—planned concentration of the solution was drawn, and the turning point of the curve indicated the equilibrium concentration of the compounds.

[2] = tested on: Liver cancer cells (HUH-7); experiment: Transmembrane test; type: in vitro ADME; conditions: HUH-7, 24 hours, arithmetic mean over concentrations
Protocol: (§1) Liver cancer cells (HUH-7) were seeded in a 6-well plate at a concentration of 4*10^5 cells/mL, 2 mL per well, and cultured overnight until the cells were adherent to the wall.
(§2) The next day, compound solutions were prepared as follows: WG compounds of present application and corresponding compounds of structure A were respectively weighed, prepared with pure DMSO into mother solutions of high concentration, then gradiently diluted to obtain compound solutions of 10 uM/30 uM/100 uM/150 uM/300 uM in 10% DMSO, and shaken to mix well.
When the cells were adherent to the wall under microscope observation, 200 uL of compound solutions were added to each well with a ratio of compound solution to culture medium at 1:10.
After culture for 24 hours, the culture medium was sucked out with a pipette, and the wells were then washed five times with phosphate buffer, 2 mL each time for 30 seconds, to ensure there were no compound residues in the environment of the cells. Solutions in the wells were thoroughly sucked up, and 150 uL RIPA Lysis Buffer was added into each well. Then the culture was continued on ice for 30 min to lyse the cells. Lysates were collected and centrifuged at […] for 1 h, and supernatants were collected and characterized with HPLC to determine the concentration of the compounds therein.
The solubility and changes of transmembrane efficiency of WG compounds relative to corresponding compounds of structure A were analyzed and calculated. An arithmetic mean value of transmembrane efficiency changes under different concentrations was calculated, thereby obtaining a reference value of the difference of transmembrane efficiency between two groups of compounds.

[3] = tested on: Liver cancer cells (HUH-7); experiment: Cell growth inhibition test (cck-8); type: cell-based; conditions: HUH-7, 72 hours
Protocol: Liver cancer cells (HUH-7) were seeded in a 96-well plate at a concentration of 2*10^4 cells/mL, 100 uL per well, and cultured overnight.
as §2, with “day, the cells were observed microscope to ensure adherence. Compound” for “day, compound”, “10 nM/100 nM/300 nM/1000 nM/3000 nM” for “10 uM/30 uM/100 uM/150 uM/300 uM”
Positive drug solutions in the control group were prepared with the same solvent and method, and only a single dosage was required. In this test, the positive drug solution is 1 uM lenvatinib.
After solution preparation was completed, 10 uL of compound solutions were added into each well of the 96-well plate, three duplicates for each dosage. The plate was gently shaken to allow the cells to repeatedly contact with the compound solutions, and then the plate was placed in an incubator to culture for 72 hours. 72 hours later, the plate was taken out and 10 uL cck-8 reagent was added into each well and shaken gently to mix well. Then the plate was placed in an incubator to culture for two hours. Two hours later, the plate was taken out and analyzed with a microplate reader to measure the absorbance of each well at a wavelength of 450 nm.
A graph can be drawn according to the gradient of concentrations, and the results can be compared directly.

[4] = tested on: target protein in liver cancer cells (HUH-7); experiment: Proteolysis test (Western blot of target protein); type: cell-based; design: key to Protein content (blackness of experimental group / blank control group): blot blackness of treated / blank control (fraction of control); conditions: HUH-7, 24 hours
Protocol: as §1
as §2, with “nM/30 nM/100 nM/300 nM/1000 nM/3000 nM” for “uM/30 uM/100 uM/150 uM/300 uM”, “well. 200 uL of compound solutions were added to each well with a ratio of compound solution to culture medium at 1:10.” for “well.”
After culture for 24 hours, the culture medium was sucked out with a pipette, and then the wells were washed 3 times with PBS. Solutions in the wells were thoroughly sucked up, and 150 uL RIPA Lysis Buffer was added into each well. Then the culture was continued on ice for 30 min to lyse the cells.
Lysates were collected and centrifuged at 16000 rpm for 10 minutes. Supernatants were collected and the total protein content was normalized with a BCA kit to determine target protein contents with Western blot.
The results were analyzed with ImageJ. Blackness of each strip was measured and the protein was quantified for comparison analysis according to formula: Protein content=blackness value of the experimental group/blackness value of the blank control group.

| SMILES | solubility thermodynamic at 12 h [1] | Transmembrane efficiency relative to corresponding compound of structure A (WGint4) [2] | pIC50 [3] | DC50 [4] | Protein content (blackness of experimental group / blank control group) ([4]; dosage 1 nM) | Protein content (blackness of experimental group / blank control group) ([4]; dosage 10 nM) | Protein content (blackness of experimental group / blank control group) ([4]; dosage 30 nM) | Protein content (blackness of experimental group / blank control group) ([4]; dosage 100 nM) | Protein content (blackness of experimental group / blank control group) ([4]; dosage 300 nM) | solubility thermodynamic ([1]; 12 hours) | pIC50 ([3]; Homo sapiens) |
| --- | --- | --- | --- | --- | --- | --- | --- | --- | --- | --- | --- |
| COc1cc2nccc(Oc3ccc(NC(=O)NC4CC4)c(Cl)c3)c2cc1C(=O)NCCCCCCC(=O)N[C@H](C(=O)N1C[C@H](OP(=O)(O)OCCCCCCCCCC(=O)NC(COCCC(=O)NCCCNC(=O)CCCCOC2OC(CO)C(O)C(O)C2NC(C)=O)(COCCC(=O)NCCCNC(=O)CCCCOC2OC(CO)C(O)C(O)C2NC(C)=O)COCCC(=O)NCCCNC(=O)CCCCOC2OC(CO)C(O)C(O)C2NC(C)=O)C[C@H]1C(=O)NCc1ccc(-c2scnc2C)cc1)C(C)(C)C (some centres unmarked) [WG-1 (00300639)] | 677 µM (≈ 1770 µg/mL) | about 9.2 times | 7.67 | 18 nM | 0.93 | 0.72 | 0.31 | 0.16 | 0.13 |  |  |
| CC(=O)N[C@H]1[C@H](OCCCCC(=O)NCCCNC(=O)CCOCC(COCCC(=O)NCCCNC(=O)CCCCO[C@@H]2O[C@H](CO)[C@H](O)[C@H](O)[C@H]2NC(C)=O)(COCCC(=O)NCCCNC(=O)CCCCO[C@@H]2O[C@H](CO)[C@H](O)[C@H](O)[C@H]2NC(C)=O)NC(=O)CCCCCCCCCOP(=O)(O)O[C@@H]2C[C@@H](C(=O)NCc3ccc(-c4scnc4C)cc3)N(C(=O)[C@@H](NC(=O)COCCOCCN(C)C(=O)c3cc(Oc4ccc(NC(=O)Nc5ccc(Cl)c(C(F)(F)F)c5)cc4)ccn3)C(C)(C)C)C2)O[C@H](CO)[C@H](O)[C@@H]1O [WG-3(00400639)] |  | WG-3 is about 15 times | 7.10 | 81.4 nM |  |  |  |  |  | 255 µM (≈ 681 µg/mL) |  |
| COc1cc2c(Oc3ccc(NC(=O)C4(C(=O)Nc5ccc(F)cc5)CC4)cc3F)ccnc2cc1OCCCOCCCOCCC(=O)N[C@H](C(=O)N1C[C@H](OP(=O)(O)OCCCCCCCCCC(=O)NC(COCCC(=O)NCCCNC(=O)CCCCOC2OC(CO)C(O)C(O)C2NC(C)=O)(COCCC(=O)NCCCNC(=O)CCCCOC2OC(CO)C(O)C(O)C2NC(C)=O)COCCC(=O)NCCCNC(=O)CCCCOC2OC(CO)C(O)C(O)C2NC(C)=O)C[C@H]1C(=O)NCc1ccc(-c2scnc2C)cc1)C(C)(C)C (some centres unmarked) [WG-5(00600639)] | 731 µM (≈ 2010 µg/mL) | WG-5 is about 11.5 times |  |  |  |  |  |  |  |  |  |
| COc1cc2nccc(Oc3ccc(NC(=O)NC4CC4)c(Cl)c3)c2cc1C(=O)NCCCCCCC(=O)N[C@H](C(=O)N1C[C@H](OP(=O)(O)OCCCCCCCCCC(=O)NC(CNC(=O)CCCCCCOC2OC(CO)C(O)C(O)C2NC(C)=O)CNC(=O)CCCCCCOC2OC(CO)C(O)C(O)C2NC(C)=O)C[C@H]1C(=O)NCc1ccc(-c2scnc2C)cc1)C(C)(C)C (some centres unmarked) [WG-2(00300629)] | 603 µM (≈ 1180 µg/mL) | WG-2 is about 8.3 times | 7.53 | 21.4 nM |  |  |  |  |  |  |  |
| COc1cc2nccc(Oc3ccc(NC(=O)NC4CC4)c(Cl)c3)c2cc1C(=O)NCCCCCCC(=O)N[C@H](C(=O)N1C[C@H](O)C[C@H]1C(=O)NCc1ccc(-c2scnc2C)cc1)C(C)(C)C [WGint4 (003006)] | 31 µM (≈ 30 µg/mL) |  |  | 150 nM | 0.97 | 0.97 | 0.84 | 0.65 | 0.22 |  | 6.68 |
| COc1cc2c(Oc3ccc(NC(=O)C4(C(=O)Nc5ccc(F)cc5)CC4)cc3)ccnc2cc1OCCCOCCCOCCC(=O)N[C@H](C(=O)N1C[C@H](OP(=O)(O)OCCCCCCCCCC(=O)NC(COCCC(=O)NCCCNC(=O)CCCCOC2OC(CO)C(O)C(O)C2NC(C)=O)(COCCC(=O)NCCCNC(=O)CCCCOC2OC(CO)C(O)C(O)C2NC(C)=O)COCCC(=O)NCCCNC(=O)CCCCOC2OC(CO)C(O)C(O)C2NC(C)=O)C[C@H]1C(=O)NCc1ccc(-c2scnc2C)cc1)C(C)(C)C (some centres unmarked) [WG-4(00500639)] | 476 µM (≈ 1300 µg/mL) | WG-4 is about 17.1 times |  |  |  |  |  |  |  |  |  |
